Reference: publication PMC7402526, “An in vitro quantitative systems pharmacology approach for deconvolving mechanisms of drug-induced, multilineage cytopenias” (PLoS Computational Biology, 2020)

Tests used:
[1] = tested on: total dead cells (totalDeadCells); experiment: MLTA, total dead cells concentration-response; format: cell-based; conditions: Homo sapiens, 144 h, 6 days, normalized to vehicle control, read-out: total_dead normalized cell count
Protocol: A custom optimized cytokine cocktail was developed using commercially available cytokines (Peprotech, New Jersey) to facilitate simultaneous multi-lineage differentiation and self-renewal of freeze-thawed primary human bone marrow-derived CD34+ cells in SFEM II media (cells and media from StemCell Technologies, Vancouver). Cultures were carried out in ultra-low attachment 96-well plates (Corning, New York) with test article added on day 0 and cultured at 37°C, 85% relative humidity, and 5% CO2 for six days before interrogating drug impact via 17-parameter flow cytometry.
The flow cytometry panel used to define hematopoietic subsets was composed of CD34-PECy7, CD90-PECY5, CD38-AF488, CD371-PE, CD45Ra-BV421, CD14-BV605, CD42b-AF647, CD10-PEDazzle594, CD235a-PerCPCy5.5 (BioLegend, California), CD15-BUV395, CD41a-APCH7, CD71-BV786 (BD Biosciences, California), and DAPI for dead cell exclusion (ThermoFisher, California). In short, Day 6 cells were harvested, FcR-blocked (FcR binding inhibitor, ThermoFisher), surface-stained, then analyzed in a buffer containing TruCount Control Beads using a BD LSR Fortessa SORP fitted with a high-throughput sampler (BD Biosciences, California). Data was analyzed in Diva 6.0.2 and exported to CSV where after all cell data was transformed to cell per mL then normalized on a per-donor basis to untreated control wells to determine drug impact.
Donor material was collected and cultured as described above. The number of replicate donor samples per drug ranged from 2–7 and varied per drug (S1 Table). Drug treatment was added at time 0 and cells were maintained in culture for 6 days. Concentrations tested for each drug compound are contained in S1 Table. Concentrations were selected to span a range that is clinically useful. Following treatment, cell populations were measured using flow cytometry. We extracted cell counts from flow cytometry data, normalized to bead counts, and corrected for well volume.
Each well was normalized to the average of six vehicle control wells. For drugs that were tested across multiple runs of the assay, vehicle-normalized donor data were pooled, and we used the average of these pooled data for further modeling. Normalized data used as model inputs are included in S1 Table.

granulocytes (Gran-lin) = experiment: MLTA, Gran: concentration-response and QSP model fit; format: cell-based, human; conditions: Homo sapiens, 144 h
Procedure, shortened: (§1)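 Freeze-thawed primary human bone marrow CD34+ cells were grown in SFEM II with a multi-lineage cytokine cocktail, drug added day 0, six days at 37°C. Lineage counts came from 17-parameter flow with TruCount beads, vehicle-normalized per donor, then fitted by an Emax-based QSP model.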

[2] = tested on: neutrophils (neutrophil-lin); experiment: MLTA, Neut: concentration-response and QSP model fit; format: cell-based, human; conditions: Homo sapiens, Neutrophil, 144 h
Procedure, shortened: as §1

[3] = tested on: late erythroid cells (Eryth II); experiment: MLTA, ErythII: concentration-response and QSP model fit; format: cell-based, human; conditions: Homo sapiens, 144 h
Procedure, shortened: as §1

[4] = tested on: monocyte progenitors (monocyte prog); experiment: MLTA, MonoP: concentration-response and QSP model fit; format: cell-based, human; conditions: Homo sapiens, Monocyte, 144 h
Procedure, shortened: as §1

[5] = tested on: hematopoietic stem cells (HSCs); experiment: Multi-lineage toxicity assay (MLTA), HSCs: concentration-response and QSP model fit; format: cell-based, human; set-up: EmaxAP,HSC / EmaxT,HSC / Emax_drug_HSC: unitless, 0–2; ≤1 anti-proliferative, >1 adds cell killing
Procedure, shortened: as §1

monocytes (monocyte-lin) = experiment: MLTA, Mono: concentration-response and QSP model fit; format: cell-based, human; conditions: Homo sapiens, Monocyte, 144 h
Procedure, shortened: as §1

[6] = QSP model fit of 6-day MLTA data

EC50 [2, 6]: 178 nM
EC50 ([3]; QSP model fit of 6-day MLTA data, read-out: EC50ErythII): 222 nM
EC50 (monocytes (monocyte-lin); [6]): 180 nM
Compound: CN(C)C(=O)c1cc2cnc(Nc3ccc(N4CCNCC4)cn3)nc2n1C1CCCC1 [ribociclib]
activity at 0.0002 µM ([1]; dose 0.2 nM): 117%
activity at 0.001 µM ([1]; dose 1 nM): 117%
activity at 0.005 µM ([1]; dose 5 nM): 129%
activity at 0.025 µM ([1]; dose 25 nM): 81.1%
activity at 0.1 µM ([1]; dose 100 nM): 60%
activity at 0.5 µM ([1]; dose 500 nM): 32.1%
activity at 2.5 µM ([1]; dose 2500 nM): 27.8%
activity at 0.0002 µM (granulocytes (Gran-lin); dose 0.2 nM, 6 days, normalized to vehicle control, read-out: Gran normalized cell count): 92.9%
activity at 0.001 µM (granulocytes (Gran-lin); dose 1 nM, 6 days, normalized to vehicle control, read-out: Gran normalized cell count): 98.1%
activity at 0.005 µM (granulocytes (Gran-lin); dose 5 nM, 6 days, normalized to vehicle control, read-out: Gran normalized cell count): 109%
activity at 0.025 µM (granulocytes (Gran-lin); dose 25 nM, 6 days, normalized to vehicle control, read-out: Gran normalized cell count): 74.6%
activity at 0.1 µM (granulocytes (Gran-lin); dose 100 nM, 6 days, normalized to vehicle control, read-out: Gran normalized cell count): 50.7%
activity at 0.5 µM (granulocytes (Gran-lin); dose 500 nM, 6 days, normalized to vehicle control, read-out: Gran normalized cell count): 23.7%
activity at 2.5 µM (granulocytes (Gran-lin); dose 2500 nM, 6 days, normalized to vehicle control, read-out: Gran normalized cell count): 6.7%
Emax (granulocytes (Gran-lin); parameter from QSP model fitting, read-out: Emax_drug_Gran): 0.0359%
activity at 0.0002 µM ([2]; dose 0.2 nM, 6 days, normalized to vehicle control, read-out: Neut normalized cell count): 77.2%
activity at 0.001 µM ([2]; dose 1 nM, 6 days, normalized to vehicle control, read-out: Neut normalized cell count): 83.1%
activity at 0.005 µM ([2]; dose 5 nM, 6 days, normalized to vehicle control, read-out: Neut normalized cell count): 96.4%
activity at 0.025 µM ([2]; dose 25 nM, 6 days, normalized to vehicle control, read-out: Neut normalized cell count): 65.4%
activity at 0.1 µM ([2]; dose 100 nM, 6 days, normalized to vehicle control, read-out: Neut normalized cell count): 52.7%
activity at 0.5 µM ([2]; dose 500 nM, 6 days, normalized to vehicle control, read-out: Neut normalized cell count): 25.1%
activity at 2.5 µM ([2]; dose 2500 nM, 6 days, normalized to vehicle control, read-out: Neut normalized cell count): 4.85%
Emax ([2]; parameter from QSP model fitting, read-out: Emax_drug_Neut): 13.9%
activity at 0.0002 µM ([3]; dose 0.2 nM, 6 days, normalized to vehicle control, read-out: ErythII normalized cell count): 84.3%
activity at 0.001 µM ([3]; dose 1 nM, 6 days, normalized to vehicle control, read-out: ErythII normalized cell count): 97.7%
activity at 0.005 µM ([3]; dose 5 nM, 6 days, normalized to vehicle control, read-out: ErythII normalized cell count): 113%
activity at 0.025 µM ([3]; dose 25 nM, 6 days, normalized to vehicle control, read-out: ErythII normalized cell count): 81.4%
activity at 0.1 µM ([3]; dose 100 nM, 6 days, normalized to vehicle control, read-out: ErythII normalized cell count): 79.8%
activity at 0.5 µM ([3]; dose 500 nM, 6 days, normalized to vehicle control, read-out: ErythII normalized cell count): 66.7%
activity at 2.5 µM ([3]; dose 2500 nM, 6 days, normalized to vehicle control, read-out: ErythII normalized cell count): 33.6%
Emax ([3]; parameter from QSP model fitting, read-out: Emax_drug_ErythroidII): 10.8%
activity at 0.0002 µM ([4]; dose 0.2 nM, 6 days, normalized to vehicle control, read-out: MonoPs normalized cell count): 100%
activity at 0.001 µM ([4]; dose 1 nM, 6 days, normalized to vehicle control, read-out: MonoPs normalized cell count): 108%
activity at 0.005 µM ([4]; dose 5 nM, 6 days, normalized to vehicle control, read-out: MonoPs normalized cell count): 99.8%
activity at 0.025 µM ([4]; dose 25 nM, 6 days, normalized to vehicle control, read-out: MonoPs normalized cell count): 80.2%
activity at 0.1 µM ([4]; dose 100 nM, 6 days, normalized to vehicle control, read-out: MonoPs normalized cell count): 45.6%
activity at 0.5 µM ([4]; dose 500 nM, 6 days, normalized to vehicle control, read-out: MonoPs normalized cell count): 16.7%
activity at 2.5 µM ([4]; dose 2500 nM, 6 days, normalized to vehicle control, read-out: MonoPs normalized cell count): 6.97%
Emax ([4]; parameter from QSP model fitting, read-out: Emax_drug_MonoP): 0.0352%
EC50 ([5]; Homo sapiens, Hematopoietic stem cell, 144 h, QSP model fit of 6-day MLTA data): 373 nM
activity at 0.0002 µM ([5]; Homo sapiens, Hematopoietic stem cell, 144 h, dose 0.2 nM, 6 days, normalized to vehicle control, read-out: HSCs normalized cell count): 90.3%
activity at 0.001 µM ([5]; Homo sapiens, Hematopoietic stem cell, 144 h, dose 1 nM, 6 days, normalized to vehicle control, read-out: HSCs normalized cell count): 93.9%
activity at 0.005 µM ([5]; Homo sapiens, Hematopoietic stem cell, 144 h, dose 5 nM, 6 days, normalized to vehicle control, read-out: HSCs normalized cell count): 107%
activity at 0.025 µM ([5]; Homo sapiens, Hematopoietic stem cell, 144 h, dose 25 nM, 6 days, normalized to vehicle control, read-out: HSCs normalized cell count): 98.7%
activity at 0.1 µM ([5]; Homo sapiens, Hematopoietic stem cell, 144 h, dose 100 nM, 6 days, normalized to vehicle control, read-out: HSCs normalized cell count): 89.4%
activity at 0.5 µM ([5]; Homo sapiens, Hematopoietic stem cell, 144 h, dose 500 nM, 6 days, normalized to vehicle control, read-out: HSCs normalized cell count): 67.7%
activity at 2.5 µM ([5]; Homo sapiens, Hematopoietic stem cell, 144 h, dose 2500 nM, 6 days, normalized to vehicle control, read-out: HSCs normalized cell count): 35.2%
Emax ([5]; Homo sapiens, Hematopoietic stem cell, 144 h, parameter from QSP model fitting, read-out: Emax_drug_HSC): 48.9%
EmaxAP,HSC ([5]; anti-proliferation component, min(1, EmaxT)): 0.489
activity at 0.0002 µM (monocytes (monocyte-lin); dose 0.2 nM, 6 days, normalized to vehicle control, read-out: Mon normalized cell count): 84.3%
activity at 0.001 µM (monocytes (monocyte-lin); dose 1 nM, 6 days, normalized to vehicle control, read-out: Mon normalized cell count): 96.7%
activity at 0.005 µM (monocytes (monocyte-lin); dose 5 nM, 6 days, normalized to vehicle control, read-out: Mon normalized cell count): 92.1%
activity at 0.025 µM (monocytes (monocyte-lin); dose 25 nM, 6 days, normalized to vehicle control, read-out: Mon normalized cell count): 78.1%
activity at 0.1 µM (monocytes (monocyte-lin); dose 100 nM, 6 days, normalized to vehicle control, read-out: Mon normalized cell count): 55.4%
activity at 0.5 µM (monocytes (monocyte-lin); dose 500 nM, 6 days, normalized to vehicle control, read-out: Mon normalized cell count): 31.4%
activity at 2.5 µM (monocytes (monocyte-lin); dose 2500 nM, 6 days, normalized to vehicle control, read-out: Mon normalized cell count): 8.51%
Emax (monocytes (monocyte-lin); parameter from QSP model fitting, read-out: Emax_drug_Mono): 19.5%
